Results published in ChEMBL document CHEMBL1123526, “3-Hydroxy-3-methylglutaryl-coenzyme A reductase inhibitors. 4. Side chain ester derivatives of mevinolin” (J Med Chem, 1986).

target: T1, 3-hydroxy-3-methylglutaryl-coenzyme A reductase (Rattus norvegicus, UniProt P51639); assay: Inhibition of solubilized, purified rat liver HMG-CoA reductase.
T1 sequence (P51639 whole entry): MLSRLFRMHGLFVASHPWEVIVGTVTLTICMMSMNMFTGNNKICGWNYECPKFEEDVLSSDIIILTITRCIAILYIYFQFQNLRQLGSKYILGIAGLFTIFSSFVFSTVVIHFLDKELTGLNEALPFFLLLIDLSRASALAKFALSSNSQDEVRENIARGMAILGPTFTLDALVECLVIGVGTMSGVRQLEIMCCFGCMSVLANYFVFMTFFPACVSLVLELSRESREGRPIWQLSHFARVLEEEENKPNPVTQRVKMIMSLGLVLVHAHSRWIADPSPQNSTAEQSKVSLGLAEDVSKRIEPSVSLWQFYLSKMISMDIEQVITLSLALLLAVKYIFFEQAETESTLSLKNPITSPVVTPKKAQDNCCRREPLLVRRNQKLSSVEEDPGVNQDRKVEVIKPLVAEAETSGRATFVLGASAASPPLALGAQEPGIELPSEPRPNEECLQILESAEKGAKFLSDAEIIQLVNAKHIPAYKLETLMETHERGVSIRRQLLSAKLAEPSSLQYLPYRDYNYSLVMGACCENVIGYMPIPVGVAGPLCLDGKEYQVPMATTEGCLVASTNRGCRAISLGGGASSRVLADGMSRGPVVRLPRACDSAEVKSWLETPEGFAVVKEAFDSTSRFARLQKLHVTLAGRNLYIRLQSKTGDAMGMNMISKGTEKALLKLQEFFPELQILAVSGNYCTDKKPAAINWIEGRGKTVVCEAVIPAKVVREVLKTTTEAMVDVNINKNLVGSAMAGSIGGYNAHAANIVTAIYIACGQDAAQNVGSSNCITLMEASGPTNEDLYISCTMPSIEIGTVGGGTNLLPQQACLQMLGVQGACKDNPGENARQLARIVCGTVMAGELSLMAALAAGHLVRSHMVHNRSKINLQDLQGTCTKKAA

Compound | IC50 [nM]
CC[C@H](C)C(=O)O[C@H]1C[C@@H](C)C=C2C=C[C@H](C)[C@H](CC[C@@H]3C[C@@H](O)CC(=O)O3)C21 (some centres undefined) | 2.2
C[C@H]1C=C2C=C[C@H](C)[C@H](CC[C@@H]3C[C@@H](O)CC(=O)O3)C2[C@@H](OC(=O)C(C)(C)C)C1 (some centres undefined) | 2.7
C[C@H]1C=C2C=C[C@H](C)[C@H](CC[C@@H]3C[C@@H](O)CC(=O)O3)C2[C@@H](OC(=O)c2ccc(F)cc2)C1 (some centres undefined) | 37
CC(C)=CC(=O)O[C@H]1C[C@@H](C)C=C2C=C[C@H](C)[C@H](CC[C@@H]3C[C@@H](O)CC(=O)O3)C21 (some centres undefined) | 27.3
CCCCCCCCCC(=O)O[C@H]1C[C@@H](C)C=C2C=C[C@H](C)[C@H](CC[C@@H]3C[C@@H](O)CC(=O)O3)C21 (some centres undefined) | 295
CC[C@@H](C)C(=O)O[C@H]1C[C@@H](C)C=C2C=C[C@H](C)[C@H](CC[C@@H]3C[C@@H](O)CC(=O)O3)C21 (some centres undefined) | 2.2
CCC(CC)(CC)C(=O)O[C@H]1C[C@@H](C)C=C2C=C[C@H](C)[C@H](CC[C@@H]3C[C@@H](O)CC(=O)O3)C21 (some centres undefined) | 1.4
CCCCC(=O)O[C@H]1C[C@@H](C)C=C2C=C[C@H](C)[C@H](CC[C@@H]3C[C@@H](O)CC(=O)O3)C21 (some centres undefined) | 8.7
C[C@H]1C=C2C=C[C@H](C)[C@H](CC[C@@H]3C[C@@H](O)CC(=O)O3)C2[C@@H](OC(=O)C23CC4CC(CC(C4)C2)C3)C1 (some centres undefined) | 3.8
C[C@H]1C=C2C=C[C@H](C)[C@H](CC[C@@H]3C[C@@H](O)CC(=O)O3)C2[C@@H](OC(=O)C2CC2)C1 (some centres undefined) | 38.6
C[C@H]1C=C2C=C[C@H](C)[C@H](CC[C@@H]3C[C@@H](O)CC(=O)O3)C2[C@@H](OC(=O)Oc2ccccc2)C1 (some centres undefined) | 83
C=C(C)CC(=O)O[C@H]1C[C@@H](C)C=C2C=C[C@H](C)[C@H](CC[C@@H]3C[C@@H](O)CC(=O)O3)C21 (some centres undefined) | 2.9
CC(=O)O[C@H]1C[C@@H](C)C=C2C=C[C@H](C)[C@H](CC[C@@H]3C[C@@H](O)CC(=O)O3)C21 (some centres undefined) | 269
CC(C)CC(=O)O[C@H]1C[C@@H](C)C=C2C=C[C@H](C)[C@H](CC[C@@H]3C[C@@H](O)CC(=O)O3)C21 (some centres undefined) | 5.4
CCCC(CC)(CC)C(=O)O[C@H]1C[C@@H](C)C=C2C=C[C@H](C)[C@H](CC[C@@H]3C[C@@H](O)CC(=O)O3)C21 (some centres undefined) | 1.9
CC(C)C(=O)O[C@H]1C[C@@H](C)C=C2C=C[C@H](C)[C@H](CC[C@@H]3C[C@@H](O)CC(=O)O3)C21 (some centres undefined) | 7.7
C[C@H]1C=C2C=C[C@H](C)[C@H](CC[C@@H]3C[C@@H](O)CC(=O)O3)[C@H]2[C@@H](OC(=O)Cc2ccccc2)C1 | 19
CCC(C)(CC)C(=O)O[C@H]1C[C@@H](C)C=C2C=C[C@H](C)[C@H](CC[C@@H]3C[C@@H](O)CC(=O)O3)C21 (some centres undefined) | 1.4
CC(CC(=O)O[C@H]1C[C@@H](C)C=C2C=C[C@H](C)[C@H](CC[C@@H]3C[C@@H](O)CC(=O)O3)C21)C(F)(F)F (some centres undefined) | 3.5
